The test system of the test is Human Trabecular Meshwork (HTM) cells. Nature of the test: Expression of MYLK-4 in HTM cells by Western blotting. Format: cell-based. The settings on record: HTM cells treated overnight with 50 μg/mL dexamethasone. For orientation: In western blotting, separated proteins are transferred to a membrane and probed.

Protocol: Expression of MYLK-4 in Cells
Human Trabecular Meshwork (HTM) cells (Cat. NO. 6590) were obtained from ScienCell Research Laboratories. HTM cells were maintained in Trabecular Meshwork Cell Medium (TMCM) (Cat. NO. 6591). TMCM formulated from 500 mL basal medium, 10 mL FBS (Cat. NO. 0010), 5 mL trabecular meshwork cell growth supplement (TMCGS, Cat. NO. 6592) and 5 mL penicillin/streptomycin solution (P/S, Cat. NO. 503). When the cell growth reached 70-80% saturation, the HTM cells were treated overnight with 50 μg/mL dexamethasone (Cat. NO. 4902, Sigma).
The expression of MYLK4 and GAPDH in cell lysates was analyzed by Western blotting method. First, the cells were collected and washed with 1×RIPA (50 mM Tris-HCl, pH 7.4, 150 mM NaCl, 0.25% deoxycholic acid, 0.1% NP-40, 1 mM EDTA, phosphatase inhibitor and protease inhibitor mixture). Next, the cell lysates were separated by SDS-PAGE (sodium dodecyl sulfate polyacrylamide gel electrophoresis) and transferred to PVDF membrane (iBlot™ 2 Transfer Stacks, polyvinylidene fluoride membrane, Invitrogen). Immunoblotting was performed on the membrane with primary antibodies (mouse anti-MYLK4 antibody (1:1,000, Cat. NO. SAB1412951) and mouse anti-GAPDH antibody (1:1,000, Cat. NO. G8795)), wherein GAPDH was used as a loading control. […]

Turning to `C[C@@H]1C[C@H]2[C@@H]3CCC4=CC(=O)C=C[C@]4(C)[C@@]3(F)[C@@H](O)C[C@]2(C)[C@@]1(O)C(=O)CO` [dexamethasone], the “expression level of MYLK-4” value was “higher than that of normal HTM cells”.

(Values after patent US11608319B2, “Beta-amino acid derivative, kinase inhibitor and pharmaceutical composition containing the same, and method for performing an in vivo related application that benefits from the inhibition of a kinase” (Industrial Technology Research Institute, priority 2019, dated 2023).)
